Experiment [1] can be described thus: Whittle's method, writhing (acetic acid). The class given is in vivo, Male ICR-Mice. The following applies: 50 mg/kg P.O., mice; 0.6% acetic acid i.p. Background: In writhing tests, fewer writhes than in controls are read as antinociception.
Experimental: (§1) Male ICR-Mice (weighting 25-35 g.), one group being 12 mice, fasted overnight were used in this test. The sample was orally administered, and 20 minutes after, 5 ml./Kg. of 0.4% Evance blue was injected intravenously and 10 minutes thereafter, 10 ml./Kg. of 0.6% acetic acid was injected intraperitoneally. The number of writhings after 20 minutes following the administration of acetic acid was recorded and after an additional 10 minutes, the mice were killed by dislocation of the neck, the dye leaked in the abdominal cavity was washed out with 5 ml. of 0.9% saline to make the total amount 10 ml., and thereafter furs, blood corpuscles, etc., intermingled were removed by centrifugal separation at 3,000 r.p.m. for 5 minutes. Furthermore, to prevent turbidity caused by protein, 0.1 ml. of an aqueous 0.1 normal sodium hydroxide was added and then the absorbance at 590 nm was measured. The inhibition ratio of the sample administered rat groups to control groups was calculated.
The conditions of experiment [2]: 50 mg/kg.
Experimental: as §1
Experiment [3] can be described thus: Carrageenin-induced edema. It is filed as in vivo, Male Wister rats. The following applies: oral, 1 h before carrageenin, rat hind paw, 3 h. The procedure:
(a) Carrageenin-induced edema
Male Wister rats (weighing 130-170 g.), one group being 6 rats, fasted overnight were used. According to Winter's method [Proc. Soc. Exp. Biol. Med., 111,544 (1962)], 0.1 ml. of 1% carrageenin [Iwai Kagaku Yakuhin K.K. Seakem] suspension in 0.9% saline was injected into the planter tissue of the left hind paw. After 3 hours, each rat was sacrificed by chloroform and the hind paw was cut and weighed immediately. By using the value obtained by subtracting the weight of the untreated hind paw from the weight of the hind paw having injected therein the carrageenin as the weight of edema, the inhibitory ratio of the sample administered rat groups to control groups was calculated. The sample was orally administered before one hour of the injection of Carrageenin.
In addition, the test samples used in the aforesaid tests (a) and (b) were prepared by suspending the test compounds in an aqueous 0.5% methyl cellulose solutions.

For the molecule `Cc1c(N(C)C)c(=O)n(-c2ccccc2)n1C` [Aminopyrine, reference compound], the “Inhibition (%) Writhing” value in experiment [1] is given as 58.1%. For the same molecule, the “Inhibition (%) Permeability” value in experiment [2] was 41.7%.
Turning to `CSc1cc2ccccc2c(=O)n1C` [Ex. 1, 2-methyl-3-methylthio-1-oxo-1,2-dihydroisoquinoline], in experiment [3] (100 mg/kg), the “Inhibition (Carrageenin-induced edema)” value is recorded as 57.3%.
Consider `CCn1c(SC)cc2ccccc2c1=O` [Ex. 2, 2-ethyl-3-methylthio-1-oxo-1,2-dihydroisoquinoline], for which, in experiment [3] (50 mg/kg), the “Inhibition (Carrageenin-induced edema)” value was determined as 38.5%.
Consider `Cn1c([S+](C)[O-])cc2ccccc2c1=O` (centres unmarked) [Ex. 4, 2-methyl-3-methylsulfinyl-1-oxo-1,2-dihydroisoquinoline], for which the entries for the “Inhibition (Carrageenin-induced edema)” value in experiment [3] (50 mg/kg) and in experiment [3] (100 mg/kg) were 55.8% and 68.2%, respectively. Also, the “Inhibition (%) Writhing” value in experiment [1] came to 39.7%. Besides, the “Inhibition (%) Permeability” value in experiment [2] is 42.8%.
The corresponding values for `Cn1c(S(C)(=O)=O)cc2ccccc2c1=O` [Ex. 5, 2-methyl-3-methylsulfonyl-1-oxo-1,2-dihydroisoquinoline] are 50.7%, 68.1%, 45.8% and 47.1%.
With `CCCCC1C(=O)N(c2ccccc2)N(c2ccccc2)C1=O` [Phenyl butazone, reference compound], the figures for the “Inhibition (Carrageenin-induced edema)” value in experiment [3] (50 mg/kg) and in experiment [3] (100 mg/kg) were 44.5% and 51.2%, respectively.

(Values after patent US4198512A, “1-Oxo-1,2-dihydroisoquinoline derivatives” (Yamanouchi Pharmaceutical Co., Ltd., priority 1977, dated 1980).)
